From the NIST ThermoML archive (doi:10.1016/j.fluid.2015.03.030)

Assay: Boiling temperature at pressure P
Conditions: Liquid, Ebulliometric method (Recirculating still)

O=C1OC(=O)c2cc(F)ccc21 [5-fluoro-1,3-isobenzofurandione]
Conditions | Boiling temperature at pressure P [°C]
3.549 kPa | 153.68
4.301 kPa | 158.39
5.517 kPa | 164.86
6.582 kPa | 169.60
7.86 kPa | 174.33
8.973 kPa | 178.04
10.5 kPa | 182.54
12.25 kPa | 187.07
13.2 kPa | 189.31
15.16 kPa | 193.52
17.63 kPa | 198.20
18.81 kPa | 200.23
21.16 kPa | 204.02
23.05 kPa | 206.79
26 kPa | 210.78
31.21 kPa | 216.91
36.41 kPa | 222.26
40.95 kPa | 226.48
45.02 kPa | 229.90
47.3 kPa | 231.69
48.21 kPa | 232.43
51.3 kPa | 234.71
53.29 kPa | 236.12
55.87 kPa | 237.93
57.3 kPa | 238.87
59.62 kPa | 240.39
65.49 kPa | 244.02
69.16 kPa | 246.14
73.58 kPa | 248.63
78.49 kPa | 251.18
85.68 kPa | 254.76
90.57 kPa | 257.03
93.83 kPa | 258.51
96.02 kPa | 259.49
97.24 kPa | 260.02
101.21 kPa | 261.70

O=C1OC(=O)c2cc(Cl)ccc21 [4-chlorophthalic anhydride]
Conditions | Boiling temperature at pressure P [°C]
3.412 kPa | 174.12
4.468 kPa | 181.16
5.15 kPa | 184.99
5.626 kPa | 187.38
6.455 kPa | 191.23
7.207 kPa | 194.4
8.268 kPa | 198.19
9.221 kPa | 201.31
10.66 kPa | 205.62
11.74 kPa | 208.48
12.99 kPa | 211.60
14.48 kPa | 214.97
15.93 kPa | 217.97
17.17 kPa | 220.36
18.59 kPa | 222.89
20.24 kPa | 225.72
21.71 kPa | 228.1
23.52 kPa | 230.67
25.37 kPa | 233.31
27.38 kPa | 235.90
29.59 kPa | 238.67
31.99 kPa | 241.41
34.47 kPa | 244.18
37.26 kPa | 247.0
40.2 kPa | 249.76
43.82 kPa | 252.96
46.79 kPa | 255.48
50.5 kPa | 258.40
54.42 kPa | 261.32
58.75 kPa | 264.30
63.31 kPa | 267.29
68.3 kPa | 270.4
72.98 kPa | 273.1
79.29 kPa | 276.50
86.41 kPa | 280.09
92.12 kPa | 282.82
99.1 kPa | 286.02
101 kPa | 287
